The text below walks through data of PubChem BioAssay (NCI).

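48-hour exposure; five concentrations; linearly interpolated endpoints. TGI: total growth inhibition.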

Test systems include OVCAR-5 ovarian; SNB-75 CNS; HOP-62 NSCLC; OVCAR-3 ovarian; MOLT-4 leukemia; HCT-116 colon; HS 578T breast; OVCAR-4 ovarian; UO-31 renal; IGROV1 ovarian; LOX IMVI melanoma; DU-145 prostate; T-47D breast; HL-60(TB) leukemia; UACC-257 melanoma; OVCAR-8 ovarian; MALME-3M melanoma.
Holding throughout (experiment): NCI anticancer screen, dose series, 48 h

With `O=C1Nc2cc([N+](=O)[O-])ccc2C(=O)N2CCC[C@@H]12`, the TGI in the assay with OVCAR-5 ovarian, in the assay with SNB-75 CNS, in the assay on HOP-62 NSCLC, in the assay on OVCAR-3 ovarian, with MOLT-4 leukemia and with HCT-116 colon was > 100 µM each time. In addition, the TGI in the assay on HS 578T breast, with OVCAR-4 ovarian, with UO-31 renal, with IGROV1 ovarian, in the assay with LOX IMVI melanoma and in the assay on DU-145 prostate was > 100 µM each time. The TGI in the assay on T-47D breast, in the assay on HL-60(TB) leukemia, with UACC-257 melanoma and in the assay on OVCAR-8 ovarian was > 100 µM each time.
Consider `COc1ccc(C2CC(c3ccc4ccccc4c3O)=NN2C(C)=O)cc1OC` (centres undefined), for which the TGI with OVCAR-5 ovarian, in the assay with SNB-75 CNS, with MALME-3M melanoma, in the assay on HOP-62 NSCLC, in the assay with OVCAR-3 ovarian and in the assay on MOLT-4 leukemia was > 100 µM each time. The TGI in the assay on HCT-116 colon, in the assay with HS 578T breast, in the assay on OVCAR-4 ovarian, in the assay with UO-31 renal, with IGROV1 ovarian and with DU-145 prostate was > 100 µM throughout. Also, the TGI in the assay on T-47D breast, with UACC-257 melanoma and in the assay on OVCAR-8 ovarian was > 100 µM in each case.
For the molecule `Cc1ccsc1C(=O)C(CC(=O)c1cccs1)c1ccsc1` (centres undefined), the TGI in the assay with OVCAR-5 ovarian, in the assay on SNB-75 CNS, in the assay on MALME-3M melanoma, with HOP-62 NSCLC, in the assay on OVCAR-3 ovarian and with MOLT-4 leukemia was > 100 µM throughout. Further, the TGI in the assay on HCT-116 colon, with HS 578T breast, with OVCAR-4 ovarian, in the assay with UO-31 renal, in the assay on IGROV1 ovarian and in the assay on DU-145 prostate was > 100 µM each time. Further, the figures for the TGI in the assay with T-47D breast, with UACC-257 melanoma and in the assay with OVCAR-8 ovarian were 77.1 µM, > 100 µM and > 100 µM, respectively.
As for `CC[C@H](C)C1=C(O)[N@+]2([O-])Oc3ccc(-c4c(O)c(O)c(-c5ccc(OC(C)=O)cc5)c(OC(C)=O)c4OC(C)=O)cc3O[C@]2([C@@H](C)CC)C(=O)N1O`, the TGI with OVCAR-5 ovarian is > 50 µM; in the assay with MALME-3M melanoma, > 50 µM; with HOP-62 NSCLC, > 50 µM; in the assay on OVCAR-3 ovarian it was > 50 µM; with MOLT-4 leukemia, 35 µM; with HCT-116 colon it was 17.8 µM. Also, the TGI with HS 578T breast was > 50 µM; in the assay with OVCAR-4 ovarian, 31.5 µM; in the assay with UO-31 renal, > 50 µM; in the assay on IGROV1 ovarian, 18.6 µM; with LOX IMVI melanoma, > 50 µM; in the assay on DU-145 prostate, > 50 µM. For the same molecule, the TGI in the assay on T-47D breast, in the assay with HL-60(TB) leukemia, in the assay with UACC-257 melanoma and in the assay on OVCAR-8 ovarian was > 50 µM in each case.
Regarding `COCOCC1CCCN1CN1CCC[C@H]1COCOC` (some centres undefined), the TGI with OVCAR-5 ovarian, in the assay with SNB-75 CNS, in the assay on HOP-62 NSCLC, in the assay with OVCAR-3 ovarian, with MOLT-4 leukemia and in the assay on HCT-116 colon was > 100 µM throughout. Moreover, the TGI with HS 578T breast, in the assay with OVCAR-4 ovarian, in the assay on UO-31 renal, with IGROV1 ovarian, with DU-145 prostate and with T-47D breast was > 100 µM in each case. For the same molecule, the TGI was 61.3 µM in the assay on HL-60(TB) leukemia, > 100 µM in the assay on UACC-257 melanoma and > 100 µM with OVCAR-8 ovarian.
For `CC(C)C1SCc2nc3ccccc3n21` (centres undefined), the TGI in the assay on OVCAR-5 ovarian is > 100 µM; with MALME-3M melanoma it was > 100 µM; in the assay on HOP-62 NSCLC it was > 100 µM; in the assay on OVCAR-3 ovarian, > 100 µM; in the assay on MOLT-4 leukemia it was 81.6 µM; in the assay with HCT-116 colon, > 100 µM. In addition, the TGI in the assay on HS 578T breast, in the assay on OVCAR-4 ovarian, in the assay on UO-31 renal, with IGROV1 ovarian, in the assay on LOX IMVI melanoma and in the assay with DU-145 prostate was > 100 µM throughout. In addition, the TGI in the assay on T-47D breast, with HL-60(TB) leukemia, in the assay with UACC-257 melanoma and in the assay with OVCAR-8 ovarian was > 100 µM in each case.
`O=C(Nc1sccc1S(=O)(=O)c1ccc(Cl)cc1)C(F)(F)F`: the TGI was > 100 µM in the assay on OVCAR-5 ovarian; 71.6 µM with SNB-75 CNS; > 100 µM with MALME-3M melanoma; > 100 µM with HOP-62 NSCLC; > 100 µM with OVCAR-3 ovarian; 41.1 µM with MOLT-4 leukemia. For the same molecule, the TGI was 37 µM in the assay with HCT-116 colon; 72.1 µM in the assay on HS 578T breast; > 100 µM in the assay with OVCAR-4 ovarian; > 100 µM in the assay with UO-31 renal; > 100 µM in the assay on IGROV1 ovarian; > 100 µM with LOX IMVI melanoma. Further, the TGI with DU-145 prostate, in the assay with T-47D breast, in the assay on UACC-257 melanoma and in the assay on OVCAR-8 ovarian was > 100 µM throughout.
In the case of `Nc1ccc(Nc2c3ccccc3nc3ccccc23)cc1`, the TGI was > 10 µM in the assay with OVCAR-5 ovarian; 8.96 µM in the assay on MALME-3M melanoma; > 10 µM in the assay on HOP-62 NSCLC; > 10 µM with OVCAR-3 ovarian; > 10 µM in the assay with MOLT-4 leukemia; 9.52 µM in the assay on HCT-116 colon. Also, the TGI in the assay with HS 578T breast was > 10 µM; with OVCAR-4 ovarian, > 10 µM; in the assay on IGROV1 ovarian, > 10 µM; in the assay with LOX IMVI melanoma, 2.35 µM; in the assay with DU-145 prostate, > 10 µM; in the assay with T-47D breast, > 10 µM. Further, the TGI with HL-60(TB) leukemia, in the assay with UACC-257 melanoma and in the assay on OVCAR-8 ovarian was > 10 µM throughout.
Take `CC(=O)c1nc2ccccc2n1CC(=O)c1ccc(Cl)cc1`: the TGI in the assay with MALME-3M melanoma is 22.6 µM; in the assay on HOP-62 NSCLC it was 25.2 µM; in the assay with OVCAR-3 ovarian, 23.2 µM; with MOLT-4 leukemia, > 100 µM; in the assay with HCT-116 colon, > 100 µM; in the assay with HS 578T breast, > 100 µM. For the same molecule, the TGI is > 100 µM in the assay with OVCAR-4 ovarian; > 100 µM with UO-31 renal; 26.1 µM in the assay on IGROV1 ovarian; 12.6 µM in the assay on LOX IMVI melanoma; > 100 µM in the assay with DU-145 prostate; > 100 µM with T-47D breast. The figures for the TGI in the assay on HL-60(TB) leukemia, with UACC-257 melanoma and in the assay on OVCAR-8 ovarian were > 100 µM, > 100 µM and 85.8 µM, respectively.
